Read-outs that look alike come from different tables or passages of the source.
Test system: erythrocytes infected with 3D7 trophozoites
Format: cell-based, Plasmodium falciparum

SMILES: COc1ccc2c(c1)OC(O)(C(F)(F)C(F)(F)F)CC2=O (centres unmarked) [MMV007839]
- NADP+, Average (3hr): -0.3346
- Ornithine, Average (3hr): -0.1015
- Orotate, Average (3hr): -1.466
- Orotidine 5-Phosphate, Average (3hr): -1.489
- Orotidine, Average (3hr): -1.057
- PAEF, Average (3hr): -1.307
- PD, Average (3hr): 0.2119
- PDAV, Average (3hr): 0.3685
- PE, Average (3hr): 0.9141
- PEE, Average (3hr): -0.2135
- PHF, Average (3hr): 0.05129
- PPVQ, Average (3hr): -0.3492
- PVNF, Average (3hr): -0.8559
- PVQ, Average (3hr): 0.3164
- PVQA, Average (3hr): -1.408
- Pantothenate, Average (3hr): -0.2954
- Phenylalanine, Average (3hr): -0.1326
- Phosphoenolpyruvate, Average (3hr): 0.2604
- Pipecolate, Average (3hr): 0.1041
- Proline, Average (3hr): -0.09895
- Pyridoxine, Average (3hr): -0.07403
- Pyruvate, Average (3hr): 1.858
- Ribose-5-Phosphate, Average (3hr): 0.8813
- S-Adenosyl-L-homocysteine, Average (3hr): -0.314
- SDGLA, Average (3hr): -0.3844
- SFGD, Average (3hr): -0.2955
- Sedoheptulose-1/7-Phosphate, Average (3hr): 0.2199
- Serine, Average (3hr): 0.166
- Succinate Semialdehyde, Average (3hr): -0.7119
- Succinate, Average (3hr): -0.2462
- TNVK, Average (3hr): -1.745
- Threonine, Average (3hr): 0.01502
- Tryptophan, Average (3hr): -0.2359
- Tyrosine, Average (3hr): -0.01653
- UDP, Average (3hr): -0.7159
- UDP-N-acetyl-D-glucosamine, Average (3hr): 0.05247
- UDP-glucose, Average (3hr): -0.07837
- UMP, Average (3hr): -0.2624
- Uracil, Average (3hr): -0.6081
- Valine, Average (3hr): -0.194
- Xanthine, Average (3hr): -0.464
- dADP, Average (3hr): -1.193
- dATP, Average (3hr): -0.03116
- dCDP, Average (3hr): 0.3315
- dGMP, Average (3hr): 0.1661
- dTMP, Average (3hr): 0.1316
- dTTP, Average (3hr): -0.08156
- dUMP, Average (3hr): 1.365
- myo-Inositol, Average (3hr): -0.258
- sn-Glycerol 3-Phosphate, Average (3hr): 1.559
- sn-glycero-3-Phospho-1-inositol, Average (3hr): 0.1698
- 1-3 (2-3)-Bisphopshateglycerate, Average (6hr): 0.3636
- 2-Hydroxyglutarate, Average (6hr): -0.3824
- 2-Ketoglutarate, Average (6hr): -0.4713
- 3-Phoshoglycerate, Average (6hr): 0.02516
- 3-Phospho-serine, Average (6hr): -0.6364
- 4-Aminobutanoate, Average (6hr): 1.092
- 5-Phosphoribosyl-Pyrophosphate, Average (6hr): 0.556
- 6-Phosphogluconate, Average (6hr): -0.3794
- ADP, Average (6hr): -0.3027
- AMP, Average (6hr): -0.04039
- ATLS, Average (6hr): -0.1601
- ATP, Average (6hr): -0.3608
- Acetyl-CoA, Average (6hr): -0.9886
- Acetyl-L-alanine, Average (6hr): -0.3969
- Adenine, Average (6hr): -0.7079
- Arginine, Average (6hr): 0.2024
- Asparagine, Average (6hr): 0.205
- Aspartate, Average (6hr): -0.08675
- CDP, Average (6hr): -0.2824
- CDP-ethanolamine, Average (6hr): -0.09908
- CMP, Average (6hr): 0.2839
- CTP, Average (6hr): -0.5655
- Cholesteryl sulfate, Average (6hr): -0.1903
- Citrate, Average (6hr): -0.1627
- CoA, Average (6hr): -0.6499
- Cyclic AMP, Average (6hr): -1.349
- Cytidine, Average (6hr): 0.1751
- DALT, Average (6hr): 0.7209
- DEVG, Average (6hr): -0.06216
- DGLA, Average (6hr): 0.8365
- DLS, Average (6hr): -0.1236
- Deoxycytidine, Average (6hr): 1.626
- Dihydroorotate, Average (6hr): -1.004
- ESFG, Average (6hr): 0.5044
- EVGG, Average (6hr): -0.2203
- Erythrose 4-Phosphate, Average (6hr): -0.7036
- FAD, Average (6hr): -0.616
- FMN, Average (6hr): -0.6137
- Farnesyl diphosphate, Average (6hr): -0.2783
- Folate, Average (6hr): -0.4942
- Fructose-1-6-Bisphosphate, Average (6hr): 0.3974
- Fructose-6-Phosphate, Average (6hr): -0.1081
- GDP, Average (6hr): -0.8963
- GDP-mannose, Average (6hr): -1.076
- GMP, Average (6hr): -0.8795
- GTP, Average (6hr): -0.6956
- Geranylgeranyl pyrophosphate, Average (6hr): -0.7121
- Glucono-1-4-Lactone, Average (6hr): 2.219
- Glucose-6-Phosphate, Average (6hr): -0.5083
- Glutamate, Average (6hr): -0.02563
- Glutamine, Average (6hr): 1.089
- Glutathione Disulfide, Average (6hr): -0.1925
- Glutathione, Average (6hr): -0.4326
- Glyceraldehyde 3-Phosphate, Average (6hr): -1.148
- Glycerone Phosphate, Average (6hr): -0.3794
- HLD, Average (6hr): 0.5581
- HVDD, Average (6hr): 0.02571
- Histidine, Average (6hr): 1.263
- Homoserine, Average (6hr): 0.6347
- Hydroxy-L-proline, Average (6hr): -0.1227
- Hypoxanthine, Average (6hr): 0.2056
- IDP, Average (6hr): 0.2522
- IMP, Average (6hr): -0.2109
- Inosine, Average (6hr): 0.5174
- Isoleucine, Average (6hr): 0.1143
- LD, Average (6hr): 0.1248
- Lactate, Average (6hr): 2.505
- Leucine, Average (6hr): 0.06585
- Lysine, Average (6hr): 1.1316
- Malate, Average (6hr): -0.236
- Mannitol, Average (6hr): -0.1109
- Methionine, Average (6hr): -0.2224
- Myristic acid, Average (6hr): -0.7184
- N-Acetyl-glutamate, Average (6hr): -1.091
- N-Carbamoyl-L-Aspartate, Average (6hr): -1.386
- NAD+, Average (6hr): 0.1336
- NADH, Average (6hr): -2.783
- NADP+, Average (6hr): -0.3285
- Ornithine, Average (6hr): -0.4177
- Orotate, Average (6hr): -1.6355
- Orotidine 5-Phosphate, Average (6hr): -1.249
- Orotidine, Average (6hr): -0.6749
- PAEF, Average (6hr): 0.8061
- PD, Average (6hr): 1.197
- PDAV, Average (6hr): 1.2
- PE, Average (6hr): 1.699
- PEE, Average (6hr): 1.042
- PHF, Average (6hr): 0.9826
- PPVQ, Average (6hr): -0.2514
- PVNF, Average (6hr): 0.6194
- PVQ, Average (6hr): 1.502
- PVQA, Average (6hr): -0.1116
- Pantothenate, Average (6hr): -0.4384
- Phenylalanine, Average (6hr): 0.1437
- Phosphoenolpyruvate, Average (6hr): 0.09862
- Pipecolate, Average (6hr): 1.035
- Proline, Average (6hr): 0.2232
- Pyridoxine, Average (6hr): 0.219
- Pyruvate, Average (6hr): 2.1785
- Ribose-5-Phosphate, Average (6hr): 0.5462
- S-Adenosyl-L-homocysteine, Average (6hr): -0.1116
- SDGLA, Average (6hr): -0.7918
- SFGD, Average (6hr): -0.1482
- Sedoheptulose-1/7-Phosphate, Average (6hr): 0.1885
- Serine, Average (6hr): 0.02139
- Succinate Semialdehyde, Average (6hr): -0.438
- Succinate, Average (6hr): 0.1816
- TNVK, Average (6hr): -0.1213
- Threonine, Average (6hr): 0.6908
- Tryptophan, Average (6hr): -0.04867
- Tyrosine, Average (6hr): 0.1841
- UDP, Average (6hr): -0.5016
- UDP-N-acetyl-D-glucosamine, Average (6hr): -0.184
- UDP-glucose, Average (6hr): 0.0071
- UMP, Average (6hr): -0.08541
- Uracil, Average (6hr): -0.6376
- Valine, Average (6hr): 0.1675
- Xanthine, Average (6hr): -0.5471
- dADP, Average (6hr): -0.4329
- dATP, Average (6hr): 0.01926
- dCDP, Average (6hr): 0.5589
- dGMP, Average (6hr): -0.355
- dTMP, Average (6hr): 0.4667
- dTTP, Average (6hr): 0.06317
- dUMP, Average (6hr): 1.053
- myo-Inositol, Average (6hr): -0.254
- sn-Glycerol 3-Phosphate, Average (6hr): 1.275
- sn-glycero-3-Phospho-1-inositol, Average (6hr): 0.1242
- 1-3 (2-3)-diphopshateglycerate log2 ratio (+MMV007839/-MMV007839) (Av 1hr, 6 μM): 0.8283
- 2-Hydroxyglutarate log2 ratio (+MMV007839/-MMV007839) (Av 1hr, 6 μM): -0.2432
- 2-Ketoglutarate log2 ratio (+MMV007839/-MMV007839) (Av 1hr, 6 μM): -0.436
- 3-Phosho-D-glycerate log2 ratio (+MMV007839/-MMV007839) (Av 1hr, 6 μM): 0.004248
- 3-Phospho-serine log2 ratio (+MMV007839/-MMV007839) (Av 1hr, 6 μM): -0.2778
- 4-Aminobutanoate log2 ratio (+MMV007839/-MMV007839) (Av 1hr, 6 μM): 1.193
- 5-Phosphoribosyl-1-pyrophosphate log2 ratio (+MMV007839/-MMV007839) (Av 1hr, 6 μM): 0.3507
- ADP log2 ratio (+MMV007839/-MMV007839) (Av 1hr, 6 μM): -0.09347
- AMP log2 ratio (+MMV007839/-MMV007839) (Av 1hr, 6 μM): 0.1805
- ATLS log2 ratio (+MMV007839/-MMV007839) (Av 1hr, 6 μM): 0.06136
- ATP log2 ratio (+MMV007839/-MMV007839) (Av 1hr, 6 μM): -0.05715
- Acetyl-CoA log2 ratio (+MMV007839/-MMV007839) (Av 1hr, 6 μM): -0.4647
- Acetyl-L-alanine log2 ratio (+MMV007839/-MMV007839) (Av 1hr, 6 μM): 0.1907
- Adenine log2 ratio (+MMV007839/-MMV007839) (Av 1hr, 6 μM): -0.6208
- Arginine log2 ratio (+MMV007839/-MMV007839) (Av 1hr, 6 μM): 0.574
- Asparagine log2 ratio (+MMV007839/-MMV007839) (Av 1hr, 6 μM): 0.04802
- Aspartic Acid log2 ratio (+MMV007839/-MMV007839) (Av 1hr, 6 μM): 0.001665
- CDP log2 ratio (+MMV007839/-MMV007839) (Av 1hr, 6 μM): -0.01089
- CDP-ethanolamine log2 ratio (+MMV007839/-MMV007839) (Av 1hr, 6 μM): 0.2765
- CMP log2 ratio (+MMV007839/-MMV007839) (Av 1hr, 6 μM): 0.1684
- CTP log2 ratio (+MMV007839/-MMV007839) (Av 1hr, 6 μM): -0.2804
- Cholesteryl sulfate log2 ratio (+MMV007839/-MMV007839) (Av 1hr, 6 μM): -0.2972
- Citrate log2 ratio (+MMV007839/-MMV007839) (Av 1hr, 6 μM): -0.1229
- CoA log2 ratio (+MMV007839/-MMV007839) (Av 1hr, 6 μM): -0.4384
- Cyclic AMP log2 ratio (+MMV007839/-MMV007839) (Av 1hr, 6 μM): -0.8135
- Cytidine log2 ratio (+MMV007839/-MMV007839) (Av 1hr, 6 μM): -0.7749
- D-Glucono-1-4-lactone log2 ratio (+MMV007839/-MMV007839) (Av 1hr, 6 μM): 1.593
- DALT log2 ratio (+MMV007839/-MMV007839) (Av 1hr, 6 μM): -0.5028
- DEVG log2 ratio (+MMV007839/-MMV007839) (Av 1hr, 6 μM): 0.001555
- DGLA log2 ratio (+MMV007839/-MMV007839) (Av 1hr, 6 μM): -0.4525
- DLS log2 ratio (+MMV007839/-MMV007839) (Av 1hr, 6 μM): -0.423
- Deoxycytidine log2 ratio (+MMV007839/-MMV007839) (Av 1hr, 6 μM): 1.92
- Dihydroorotate log2 ratio (+MMV007839/-MMV007839) (Av 1hr, 6 μM): -0.5278
